Laboratory results reported in PubChem BioAssay (NCI).
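Assay format: 96-well plates, 48-hour exposure. GI50 is the concentration that inhibits growth by half. TGI denotes the concentration required for complete inhibition of growth.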

Experiments:
Assay in all cases: DTP human tumour cell line panel, 48 h
[1] = tested on: A498 renal
[2] = tested on: SNB-75 CNS
[3] = tested on: DU-145 prostate
[4] = tested on: U251 CNS
[5] = tested on: SN12C renal
[6] = tested on: OVCAR-4 ovarian
[7] = tested on: K-562 leukemia
[8] = tested on: ACHN renal
[9] = tested on: 786-0 renal
[10] = tested on: SK-OV-3 ovarian
[11] = tested on: HS 578T breast
[12] = tested on: CAKI-1 renal
[13] = tested on: A549 NSCLC
[14] = tested on: HOP-62 NSCLC
[15] = tested on: MDA-MB-231 breast
[16] = tested on: PC-3 prostate
[17] = tested on: SW-620 colon
[18] = tested on: MOLT-4 leukemia
[19] = tested on: RPMI-8226 leukemia
[20] = tested on: UACC-62 melanoma
[21] = tested on: HCT-116 colon
[22] = tested on: UO-31 renal
[23] = tested on: OVCAR-8 ovarian
[24] = tested on: MDA-MB-435
[25] = tested on: OVCAR-3 ovarian
[26] = tested on: KM12 colon
[27] = tested on: HL-60(TB) leukemia
[28] = tested on: SF-295 CNS
[29] = tested on: CCRF-CEM leukemia
[30] = tested on: HT29 colon
[31] = tested on: HCC-2998 colon
[32] = tested on: NCI-H460 lung
[33] = tested on: BT-549 breast
[34] = tested on: COLO 205 colon
[35] = tested on: LOX IMVI melanoma
[36] = tested on: SR leukemia
[37] = tested on: OVCAR-5 ovarian
[38] = tested on: UACC-257 melanoma
[39] = tested on: SK-MEL-2 melanoma
[40] = tested on: SF-539 CNS
[41] = tested on: SK-MEL-28 melanoma
[42] = tested on: RXF 393 renal
[43] = tested on: M14 melanoma
[44] = tested on: SNB-19 CNS
[45] = tested on: SF-268 CNS
[46] = tested on: NCI/ADR-RES ovarian
[47] = tested on: NCI-H522 lung

O=C(/C=C/c1ccccc1)C(Br)C(Br)c1ccccc1 (centres undefined)
GI50 [1]: 1900 nM | TGI [1]: 5680 nM | GI50 [2]: 3060 nM | TGI [2]: 17500 nM | GI50 [3]: 1640 nM | TGI [3]: 3240 nM | GI50 [4]: 1680 nM | TGI [4]: 3810 nM | GI50 [5]: 2000 nM | TGI [5]: 4650 nM | GI50 [6]: 1730 nM | TGI [6]: 3670 nM | GI50 [7]: 303 nM | TGI [7]: 1250 nM | GI50 [8]: 1250 nM | TGI [8]: 2570 nM | GI50 [9]: 1910 nM | TGI [9]: 4310 nM | GI50 [10]: 3660 nM | TGI [10]: 13300 nM | GI50 [11]: 2360 nM | TGI [11]: 7700 nM | GI50 [12]: 1240 nM | TGI [12]: 2600 nM | GI50 [13]: 2790 nM | TGI [13]: 9300 nM | GI50 [14]: 4060 nM | TGI [14]: 14900 nM | GI50 [15]: 1730 nM | TGI [15]: 3510 nM | GI50 [16]: 2690 nM | TGI [16]: 8690 nM | GI50 [17]: 402 nM | TGI [17]: 1590 nM | GI50 [18]: 602 nM | TGI [18]: 3000 nM | GI50 [19]: 317 nM | TGI [19]: 909 nM | GI50 [20]: 1640 nM | TGI [20]: 3290 nM | GI50 [21]: 200 nM | TGI [21]: 430 nM | GI50 [22]: 1190 nM | TGI [22]: 2480 nM | GI50 [23]: 2040 nM | TGI [23]: 6380 nM | GI50 [24]: 1490 nM | TGI [24]: 3080 nM | GI50 [25]: 1170 nM | TGI [25]: 2450 nM | GI50 [26]: 2070 nM | TGI [26]: 4380 nM | GI50 [27]: 1340 nM | TGI [27]: 3580 nM | GI50 [28]: 2950 nM | TGI [28]: 10500 nM | GI50 [29]: 308 nM | TGI [29]: 1200 nM | GI50 [30]: 1040 nM | TGI [30]: 2480 nM | GI50 [31]: 1900 nM | TGI [31]: 3630 nM | GI50 [32]: 2370 nM | TGI [32]: 5970 nM | GI50 [33]: 1860 nM | TGI [33]: 3390 nM | GI50 [34]: 1540 nM | TGI [34]: 3140 nM | GI50 [35]: 1520 nM | TGI [35]: 2910 nM | GI50 [36]: 455 nM | TGI [36]: 2590 nM | GI50 [37]: 1670 nM | TGI [37]: 3390 nM | GI50 [38]: 1590 nM | TGI [38]: 3660 nM | GI50 [39]: 1820 nM | TGI [39]: 3600 nM | GI50 [40]: 1870 nM | TGI [40]: 3860 nM | GI50 [41]: 2040 nM | TGI [41]: 4660 nM | GI50 [42]: 1520 nM | TGI [42]: 3000 nM | GI50 [43]: 2020 nM | TGI [43]: 4900 nM | GI50 [44]: 4720 nM | TGI [44]: 17700 nM | GI50 [45]: 2160 nM | TGI [45]: 5680 nM | GI50 [46]: 3370 nM | TGI [46]: 19000 nM | GI50 [47]: 1040 nM | TGI [47]: 2310 nM
